Measured values as given in US20240287080A1 (IDEAYA Biosciences Inc., priority 2021, published 2024).

Biological target: T1, Pol theta (1-899) (Homo sapiens, UniProt O75417)
T1 construct: Pol theta (1-899) (5 nM) in assay buffer
Assay: Pol theta ATPase activity, NADH oxidation-coupled enzymatic assay (ATPase NADH coupling: Standard Screening: hPolQ)
Assay type: biochemical
Conditions: Pol theta (1-899) 5 nM
How it was run: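 NADH-coupled ATPase readout: 5 nM Pol theta (1-899) preincubated 15 min with 10-point compound series in Tris pH 7.80, KCl, MgCl2, DTT, BSA, Tween, glycerol, then 100 μM ATP, 300 nM 50-mer poly-dT ssDNA, NADH, PEP, LDH and PK added (stock levels). A340 followed 60 min; slopes fit four-parameter for IC50.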

[1] = NADH oxidation-coupled ATPase assay, compounds of Table 3

T1 sequence (O75417 1-899): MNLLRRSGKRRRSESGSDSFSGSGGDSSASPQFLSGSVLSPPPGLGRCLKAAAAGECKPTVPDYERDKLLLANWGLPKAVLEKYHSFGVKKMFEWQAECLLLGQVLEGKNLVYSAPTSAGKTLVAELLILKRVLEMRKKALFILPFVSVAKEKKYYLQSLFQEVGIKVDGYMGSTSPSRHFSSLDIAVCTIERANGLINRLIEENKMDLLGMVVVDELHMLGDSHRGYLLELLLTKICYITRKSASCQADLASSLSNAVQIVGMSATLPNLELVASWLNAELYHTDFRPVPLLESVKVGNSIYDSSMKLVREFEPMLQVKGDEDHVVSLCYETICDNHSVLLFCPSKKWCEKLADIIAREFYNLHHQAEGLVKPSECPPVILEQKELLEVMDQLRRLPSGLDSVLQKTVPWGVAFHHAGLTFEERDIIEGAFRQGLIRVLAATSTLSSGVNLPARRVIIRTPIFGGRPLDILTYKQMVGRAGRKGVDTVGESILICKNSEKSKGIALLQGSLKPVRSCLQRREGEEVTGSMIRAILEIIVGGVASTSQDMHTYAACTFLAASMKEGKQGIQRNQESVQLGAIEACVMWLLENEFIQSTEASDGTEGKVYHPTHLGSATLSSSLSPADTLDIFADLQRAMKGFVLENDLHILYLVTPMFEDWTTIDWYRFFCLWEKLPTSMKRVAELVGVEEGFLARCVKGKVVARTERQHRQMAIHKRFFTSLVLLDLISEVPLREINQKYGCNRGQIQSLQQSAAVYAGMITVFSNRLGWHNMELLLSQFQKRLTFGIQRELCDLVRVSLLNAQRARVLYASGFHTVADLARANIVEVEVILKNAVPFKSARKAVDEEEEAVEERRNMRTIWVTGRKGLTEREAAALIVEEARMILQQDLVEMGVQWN

Q: Which IC50 (Table 5, ATP, dT50 ssDNA) does the source give for Cc1cc(-c2cc(Cl)ncc2OC(F)F)c(C(=O)Nc2nnc(O[C@H]3CCOC3)s2)cn1 [Example 83, (S)-2′-chloro-5′-(difluoromethoxy)-6-methyl-N-(5-((tetrahydrofuran-3-yl)oxy)-1,3,4-thiadiazol-2-yl)-(4,4′-bipyridine)-3-carboxamide] here?
A: The IC50 was ≤ 200 nM.

Q: With COc1cnc(Cl)cc1-c1cc(C)ncc1C(=O)Nc1nnc(O[C@H]2CCC[C@](C)(O)C2)s1 (racemic) [Example 178, rac-2′-chloro-N-(5-(((1R,3R)-3-hydroxy-3-methylcyclohexyl)oxy)-1,3,4-thiadiazol-2-yl)-5′-methoxy-6-methyl-(4,4′-bipyridine)-3-carboxamide] as the compound, how does the IC50 (Table 5, ATP, dT50 ssDNA) read?
A: Its IC50 is ≤ 200 nM.

Q: With COc1nnc(NC(=O)c2cnc(C)cc2-c2cccc(C(=O)N(C)C)c2)s1 [Example 336, 4-[3-(dimethylcarbamoyl)phenyl]-N-(5-methoxy-1,3,4-thiadiazol-2-yl)-6-methylpyridine-3-carboxamide] as the compound, how does the IC50 [1] read?
A: The IC50 was 1000 to 10000 nM.

Q: For COc1cnc(Cl)cc1-c1cc(OC2CC2)ncc1C(=O)Nc1nnc(O[C@@H]2CCOC2)s1 [Example 193, (R)-2′-chloro-6-cyclopropoxy-5′-methoxy-N-(5-((tetrahydrofuran-3-yl)oxy)-1,3,4-thiadiazol-2-yl)-(4,4′-bipyridine)-3-carboxamide], which IC50 (Table 5, ATP, dT50 ssDNA) is on record?
A: The IC50 was 500 to 1000 nM.

Q: With COc1nnc(NC(=O)c2cnc(C)cc2-c2ccc3[nH]ccc3c2)s1 [Example 352, 4-(1H-indol-5-yl)-N-(5-methoxy-1,3,4-thiadiazol-2-yl)-6-methylpyridine-3-carboxamide] as the compound, how does the IC50 [1] read?
A: The IC50 was 1000 to 10000 nM.

Q: COc1cnc(Cl)cc1-c1cc(C)ncc1C(=O)Nc1nnc(OCC2CCOC2C)s1 (stereo not drawn) [Example 74, 2′-chloro-5′-methoxy-6-methyl-N-(5-((2-methyltetrahydrofuran-3-yl)methoxy)-1,3,4-thiadiazol-2-yl)-(4,4′-bipyridine)-3-carboxamide] was tested. Which IC50 (Table 4, ATP, dT50 ssDNA) did it give?
A: Its IC50 is ≤ 200 nM.
